In ChEMBL document CHEMBL4342458, “Reisolation and Configurational Reinvestigation of Cottoquinazolines E-G from an Arthropod-Derived Strain of the Fungus Neosartorya fischeri” (2020):

Columns and labels:
Format in all cases: functional
Escherichia coli = assay: Antibacterial activity against ESBL-producing Escherichia coli ATCC 35218 assessed as reduction in microbial growth after 16 hrs by broth microdilution method; conditions: ATCC 35218, 16 h
Acinetobacter baumannii = assay: Antibacterial activity against Acinetobacter baumannii ATCC 19606 assessed as reduction in microbial growth after 16 hrs by broth microdilution method; conditions: ATCC 19606, 16 h
Pseudomonas aeruginosa = assay: Antibacterial activity against Pseudomonas aeruginosa ATCC 27853 assessed as reduction in microbial growth after 16 hrs by broth microdilution method; conditions: ATCC 27853, 16 h
Klebsiella pneumoniae = assay: Antibacterial activity against Klebsiella pneumoniae ATCC BAA2146 assessed as reduction in microbial growth after 16 hrs by broth microdilution method; conditions: ATCC BAA2146, 16 h
Staphylococcus aureus = assay: Antibacterial activity against methicillin-resistant Staphylococcus aureus ATCC 43300 assessed as reduction in microbial growth after 16 hrs by broth microdilution method; conditions: ATCC 43300, 16 h
Enterococcus faecalis = assay: Antibacterial activity against Enterococcus faecalis ATCC 29212 assessed as reduction in microbial growth after 16 hrs by broth microdilution method; conditions: ATCC 29212, 16 h

SMILES | MIC (Escherichia coli) [µg/mL] | MIC (Acinetobacter baumannii) [µg/mL] | MIC (Pseudomonas aeruginosa) [µg/mL] | MIC (Klebsiella pneumoniae) [µg/mL] | MIC (Staphylococcus aureus) [µg/mL] | MIC (Enterococcus faecalis) [µg/mL]
C[C@@H]1N[C@H]2N(C1=O)c1ccccc1[C@@]21C[C@H]2C(=O)N[C@@H](O1)c1nc3ccccc3c(=O)n12 | ≥ 100 | ≥ 100 | ≥ 100 | ≥ 100 | ≥ 100 | ≥ 100
C[C@@H]1N[C@H]2N(C1=O)c1ccccc1[C@@]21C[C@H]2C(=O)N(C)[C@@H](O1)c1nc3ccccc3c(=O)n12 | 8 | 32 | 32 | ≥ 100 | ≥ 100 | 16
C[C@H]1C(=O)N2c3ccccc3[C@@]3(O)C[C@H]4C(=O)N[C@H](c5nc6ccccc6c(=O)n54)N1[C@@H]23 | ≥ 100 | ≥ 100 | ≥ 100 | ≥ 100 | ≥ 100 | ≥ 100
NCC[C@H](O)C(=O)N[C@@H]1C[C@H](N)[C@@H](O[C@H]2O[C@H](CN)[C@@H](O)[C@H](O)[C@H]2O)[C@H](O)[C@H]1O[C@H]1O[C@H](CO)[C@@H](O)[C@H](N)[C@H]1O [AMIKACIN] | 4 | 2 | 2 | 8 | – | –
CO/N=C(\C(=O)N[C@@H]1C(=O)N2C(C(=O)O)=C(CSc3nc(=O)c(O)nn3C)CS[C@H]12)c1csc(N)n1 [CEFTRIAXONE] | 8 | 8 | 2 | 8 | – | –
CN[C@H](CC(C)C)C(=O)N[C@H]1C(=O)N[C@@H](CC(N)=O)C(=O)N[C@H]2C(=O)N[C@H]3C(=O)N[C@H](C(=O)N[C@H](C(=O)O)c4cc(O)cc(O)c4-c4cc3ccc4O)[C@H](O)c3ccc(c(Cl)c3)Oc3cc2cc(c3O[C@@H]2O[C@H](CO)[C@@H](O)[C@H](O)[C@H]2O[C@H]2C[C@](C)(N)[C@H](O)[C@H](C)O2)Oc2ccc(cc2Cl)[C@H]1O [VANCOMYCIN] | – | – | – | – | – | 0.5
